Data set [1] concerns the target Acetylcholine receptor; alpha1/beta1/delta/gamma (Homo sapiens, UniProt P02708+P07510+P11230+Q07001). Briefly: Binding affinity to alpha-1-beta-gamma-delta nicotinic receptor. Type of data set: protein-complex assay.
For data set [2], the target named is Neuronal acetylcholine receptor subunit alpha-7 (Homo sapiens, UniProt P36544). Description: Displacement of [3H]epibatidine from alpha7 nicotinic receptor expressed in human HEK293 cells. Type of data set: cell-based. On the technique in general: Displacement assays read how much labelled ligand stays bound in the presence of the test substance.
Data set [3] is described as follows: Agonist activity at human alpha6/4beta4 nicotinic receptor expressed in human HEK cells assessed as intracellular calcium […] by FLIPR. In kind it is functional, cell-based, HEK293. Particulars: read-out: EC50; call rule not given here.
The nature of data set [4]: Agonist activity at human alpha6/4beta4 nicotinic receptor expressed in human HEK cells assessed as intracellular calcium […] by FLIPR relative to control. Type of data set: functional, HEK293. (A change in cytosolic calcium serves as a functional read-out for many receptors and channels.)
Data set [5] is described as follows: Displacement of [3H]epibatidine from alpha6/4beta4 nicotinic receptor expressed in human HEK293 cells. Type of data set: cell-based.
Data set [6] concerns the target Voltage-gated inwardly rectifying potassium channel KCNH2 (Homo sapiens, UniProt Q12809). Description: Displacement of [3H]dofetilide from human ERG expressed in HEK293 cells. Type of data set: cell-based. Particulars: hek293.
Data set [7] concerns MDCK. Description: (§1) Apparent permeability from apical to basolateral side of MDCK cells. In kind it is ADME, cell-based, Canis lupus familiaris. The note with it: dog.
In data set [8] the target is T1, Neuronal acetylcholine receptor; alpha3/beta4 (Homo sapiens, UniProt P30926+P32297). Description: Displacement of [3H]epibatidine from alpha3beta4 nicotinic receptor expressed in human HEK293 cells. Type of data set: cell-based.
The target of data set [9] is Neuronal acetylcholine receptor; alpha4/beta2 (Homo sapiens, UniProt P17787+P43681). Briefly: Displacement of [3H]epibatidine from alpha4beta2 nicotinic receptor expressed in human HEK293 cells. The note with it: read-out: Ki. In kind it is cell-based.
The subject of data set [10] is MDCK. Description: (§2) Efflux ratio of permeability from basolateral to apical side over apical to basolateral side of MDCK cells expressing human MDR gene. In kind it is ADME, cell-based, Canis lupus familiaris. Particulars: dog, MDCK.
Data set [11] addresses T1, Neuronal acetylcholine receptor; alpha3/beta4. Briefly: Agonist activity at alpha3beta4 nicotinic receptor expressed in human HEK cells assessed as intracellular calcium efflux by FLIPR.
Data set [12] shares this target. Briefly: Agonist activity at alpha3beta4 nicotinic receptor expressed in human HEK cells assessed as intracellular calcium […] by FLIPR relative to control. Particulars: HEK293. In kind it is functional, cell-based.
The nature of data set [13]: as §1. Type of data set: ADME, cell-based, Canis lupus familiaris. The note with it: dog.
Data set [14] deals with human MDR (P-glycoprotein). Described as §2. In kind it is ADME, cell-based, Canis lupus familiaris. Particulars: dog, MDCK-MDR1.
In data set [15] the test system is Mus musculus. Description: Antipsychotic effect in sc dosed CD1 mouse assessed as prepulse inhibition. In kind it is functional. The note with it: read-out: MED.
The subject of data set [16] is Mus musculus. Description: Antipsychotic effect in sc dosed CD1 mouse assessed as inhibition of mescaline-induced scratching behavioral response. In kind it is functional.

Broadly, the Ki is the dissociation constant of the complex between target and ligand, obtained from inhibition or displacement. One may read the EC50 as the concentration needed to bring the measured effect to its halfway point. The Papp is a coefficient for how fast a substance crosses the barrier. For orientation: Papp A→B means the apparent permeability from the apical to the basolateral side of a cell layer. What is called efflux ratio is the permeability from basolateral to apical divided by that in the opposite direction, in the common usage.

T1 sequence (P30926 whole entry): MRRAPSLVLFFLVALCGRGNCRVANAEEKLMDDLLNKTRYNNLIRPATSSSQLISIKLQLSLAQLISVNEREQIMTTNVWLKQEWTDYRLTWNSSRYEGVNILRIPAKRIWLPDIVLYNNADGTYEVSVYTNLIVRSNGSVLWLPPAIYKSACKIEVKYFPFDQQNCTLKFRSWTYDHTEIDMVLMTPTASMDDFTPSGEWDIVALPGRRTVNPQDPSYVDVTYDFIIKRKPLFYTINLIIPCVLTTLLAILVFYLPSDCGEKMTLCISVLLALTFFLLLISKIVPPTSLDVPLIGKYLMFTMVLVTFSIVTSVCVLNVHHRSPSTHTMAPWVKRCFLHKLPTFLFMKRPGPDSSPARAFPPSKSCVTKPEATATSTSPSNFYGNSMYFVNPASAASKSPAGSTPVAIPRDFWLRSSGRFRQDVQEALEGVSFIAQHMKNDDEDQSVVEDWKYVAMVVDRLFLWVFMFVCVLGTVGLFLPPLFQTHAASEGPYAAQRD
T1 sequence (P32297 whole entry): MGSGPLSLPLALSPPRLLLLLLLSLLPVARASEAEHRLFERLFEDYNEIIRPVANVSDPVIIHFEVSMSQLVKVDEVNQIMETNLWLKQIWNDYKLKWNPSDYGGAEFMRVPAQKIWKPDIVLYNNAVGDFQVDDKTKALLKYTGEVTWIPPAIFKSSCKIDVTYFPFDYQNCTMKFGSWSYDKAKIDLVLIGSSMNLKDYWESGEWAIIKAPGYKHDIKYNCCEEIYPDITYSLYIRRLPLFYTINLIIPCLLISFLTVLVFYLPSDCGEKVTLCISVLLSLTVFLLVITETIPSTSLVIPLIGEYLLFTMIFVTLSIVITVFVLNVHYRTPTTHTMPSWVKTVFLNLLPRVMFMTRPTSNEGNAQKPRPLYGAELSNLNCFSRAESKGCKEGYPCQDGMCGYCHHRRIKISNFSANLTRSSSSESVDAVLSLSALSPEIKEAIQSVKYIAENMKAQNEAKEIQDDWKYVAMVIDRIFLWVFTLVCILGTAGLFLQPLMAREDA
Acetylcholine receptor; alpha1/beta1/delta/gamma, sequence (P02708 whole entry): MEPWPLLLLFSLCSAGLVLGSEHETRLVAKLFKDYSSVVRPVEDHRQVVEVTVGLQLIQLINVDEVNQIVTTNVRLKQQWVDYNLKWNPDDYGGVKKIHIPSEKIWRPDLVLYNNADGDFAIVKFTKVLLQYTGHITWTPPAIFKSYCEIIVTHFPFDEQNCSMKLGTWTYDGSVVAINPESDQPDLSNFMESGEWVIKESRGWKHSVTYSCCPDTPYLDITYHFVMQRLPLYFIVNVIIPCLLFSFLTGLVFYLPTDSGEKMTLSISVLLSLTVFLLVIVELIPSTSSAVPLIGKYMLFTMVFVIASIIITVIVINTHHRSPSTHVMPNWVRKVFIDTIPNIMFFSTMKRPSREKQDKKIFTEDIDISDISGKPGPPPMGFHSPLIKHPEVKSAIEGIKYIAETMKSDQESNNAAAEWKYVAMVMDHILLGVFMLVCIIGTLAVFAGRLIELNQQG
Acetylcholine receptor; alpha1/beta1/delta/gamma, sequence (P07510 whole entry): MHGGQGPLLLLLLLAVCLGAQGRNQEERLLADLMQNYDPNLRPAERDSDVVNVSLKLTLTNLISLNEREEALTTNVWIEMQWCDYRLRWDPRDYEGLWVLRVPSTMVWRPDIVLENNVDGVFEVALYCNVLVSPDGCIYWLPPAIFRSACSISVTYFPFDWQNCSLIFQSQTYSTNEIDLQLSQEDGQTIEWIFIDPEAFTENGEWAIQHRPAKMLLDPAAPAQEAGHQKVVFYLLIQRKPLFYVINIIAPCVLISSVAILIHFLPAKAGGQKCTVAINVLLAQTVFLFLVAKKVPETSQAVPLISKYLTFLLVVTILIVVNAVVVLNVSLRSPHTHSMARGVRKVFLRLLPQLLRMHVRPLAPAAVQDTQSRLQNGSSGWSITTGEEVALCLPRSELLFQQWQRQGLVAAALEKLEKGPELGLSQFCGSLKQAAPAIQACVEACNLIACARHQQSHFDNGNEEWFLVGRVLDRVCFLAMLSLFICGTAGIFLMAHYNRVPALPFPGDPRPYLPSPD
Acetylcholine receptor; alpha1/beta1/delta/gamma, sequence (P11230 whole entry): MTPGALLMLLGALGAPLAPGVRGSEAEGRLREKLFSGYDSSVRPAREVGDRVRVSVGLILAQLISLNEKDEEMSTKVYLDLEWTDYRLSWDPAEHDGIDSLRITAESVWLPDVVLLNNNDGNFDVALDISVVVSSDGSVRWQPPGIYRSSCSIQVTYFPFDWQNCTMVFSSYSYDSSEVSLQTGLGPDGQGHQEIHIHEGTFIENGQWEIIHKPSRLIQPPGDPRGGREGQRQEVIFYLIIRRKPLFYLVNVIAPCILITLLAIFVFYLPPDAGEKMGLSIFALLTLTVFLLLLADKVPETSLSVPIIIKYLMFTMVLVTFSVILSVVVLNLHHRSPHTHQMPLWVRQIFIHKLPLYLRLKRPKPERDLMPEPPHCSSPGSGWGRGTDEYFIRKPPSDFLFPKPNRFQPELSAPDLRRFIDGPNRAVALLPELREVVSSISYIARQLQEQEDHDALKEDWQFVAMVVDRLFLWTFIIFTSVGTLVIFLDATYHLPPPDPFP
Acetylcholine receptor; alpha1/beta1/delta/gamma, sequence (Q07001 whole entry): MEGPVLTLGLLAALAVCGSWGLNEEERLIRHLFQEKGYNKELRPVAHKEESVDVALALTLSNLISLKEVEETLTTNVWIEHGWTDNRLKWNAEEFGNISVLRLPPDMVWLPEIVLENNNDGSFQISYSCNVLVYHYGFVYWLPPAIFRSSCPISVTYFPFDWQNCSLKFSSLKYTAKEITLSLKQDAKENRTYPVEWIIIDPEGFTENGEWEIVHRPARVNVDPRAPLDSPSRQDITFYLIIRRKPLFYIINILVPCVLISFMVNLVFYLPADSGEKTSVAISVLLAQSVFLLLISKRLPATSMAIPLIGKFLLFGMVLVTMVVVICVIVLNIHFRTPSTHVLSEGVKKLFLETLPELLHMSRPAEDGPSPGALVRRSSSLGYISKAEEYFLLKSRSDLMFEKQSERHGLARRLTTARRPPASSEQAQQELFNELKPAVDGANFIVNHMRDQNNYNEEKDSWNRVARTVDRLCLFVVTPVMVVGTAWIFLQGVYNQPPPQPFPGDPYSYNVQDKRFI
Voltage-gated inwardly rectifying potassium channel KCNH2, sequence (Q12809 whole entry): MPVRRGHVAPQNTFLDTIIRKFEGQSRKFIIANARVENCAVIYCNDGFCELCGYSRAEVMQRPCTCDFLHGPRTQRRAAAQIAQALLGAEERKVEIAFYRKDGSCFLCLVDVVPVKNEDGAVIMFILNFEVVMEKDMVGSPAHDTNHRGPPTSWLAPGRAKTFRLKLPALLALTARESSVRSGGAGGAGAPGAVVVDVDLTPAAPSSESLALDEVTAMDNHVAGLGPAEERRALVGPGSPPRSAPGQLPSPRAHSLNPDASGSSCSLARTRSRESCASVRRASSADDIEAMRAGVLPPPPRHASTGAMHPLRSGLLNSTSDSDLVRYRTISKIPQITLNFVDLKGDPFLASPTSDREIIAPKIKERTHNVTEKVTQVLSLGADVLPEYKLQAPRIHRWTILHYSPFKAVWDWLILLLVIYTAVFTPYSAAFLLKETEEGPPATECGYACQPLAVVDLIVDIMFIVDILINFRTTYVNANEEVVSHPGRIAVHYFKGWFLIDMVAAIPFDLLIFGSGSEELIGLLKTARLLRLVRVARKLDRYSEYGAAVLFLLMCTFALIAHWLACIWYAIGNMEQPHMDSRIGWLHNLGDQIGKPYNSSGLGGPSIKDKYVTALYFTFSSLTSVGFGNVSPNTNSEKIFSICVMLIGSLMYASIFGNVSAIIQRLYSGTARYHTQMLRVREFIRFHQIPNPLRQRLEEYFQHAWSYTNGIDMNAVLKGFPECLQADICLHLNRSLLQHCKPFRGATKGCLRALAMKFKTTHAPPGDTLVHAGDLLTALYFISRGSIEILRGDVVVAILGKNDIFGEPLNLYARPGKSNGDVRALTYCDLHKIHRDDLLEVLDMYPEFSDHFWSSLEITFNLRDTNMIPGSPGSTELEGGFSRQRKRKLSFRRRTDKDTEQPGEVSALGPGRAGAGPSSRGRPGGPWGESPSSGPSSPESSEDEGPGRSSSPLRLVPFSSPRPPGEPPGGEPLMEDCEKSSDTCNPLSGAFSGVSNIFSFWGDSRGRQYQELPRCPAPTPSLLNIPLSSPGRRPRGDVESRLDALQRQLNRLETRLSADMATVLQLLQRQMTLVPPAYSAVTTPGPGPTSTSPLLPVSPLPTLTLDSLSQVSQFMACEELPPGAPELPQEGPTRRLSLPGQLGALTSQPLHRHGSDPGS
Neuronal acetylcholine receptor subunit alpha-7, sequence (P36544 whole entry): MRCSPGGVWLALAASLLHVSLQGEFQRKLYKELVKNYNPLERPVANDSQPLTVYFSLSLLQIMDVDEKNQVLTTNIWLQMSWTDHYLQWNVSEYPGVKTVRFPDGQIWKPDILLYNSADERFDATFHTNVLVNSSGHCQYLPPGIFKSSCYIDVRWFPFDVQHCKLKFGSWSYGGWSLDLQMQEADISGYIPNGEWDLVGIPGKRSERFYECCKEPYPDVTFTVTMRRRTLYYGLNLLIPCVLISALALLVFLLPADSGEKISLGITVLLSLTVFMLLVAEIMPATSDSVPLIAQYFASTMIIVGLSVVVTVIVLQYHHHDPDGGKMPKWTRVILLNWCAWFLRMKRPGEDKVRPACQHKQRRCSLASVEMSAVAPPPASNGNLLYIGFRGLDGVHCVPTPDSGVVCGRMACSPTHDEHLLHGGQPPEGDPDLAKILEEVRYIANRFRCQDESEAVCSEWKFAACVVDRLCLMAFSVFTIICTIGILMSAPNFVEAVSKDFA

Take `Cl.Oc1cncc(-c2ccccc2O[C@H]2C[C@@H]3CNC[C@H]2C3)c1`: the Ki was 1680 nM in data set [1]; over 13500 nM in data set [2]; 0.177 nM in data set [5]; “Not Active” in [6]; 0.748 nM in data set [8]; 252 nM in [9]. The figures for the concentration for a half-maximal effect (EC50) in data set [3] (hek293) and in data set [11] were 279 nM and 2.99 nM, respectively. In addition, the Efficacy in data set [4] is 230%. Besides, in the data set on MDCK [7], the Papp was 3.36 ×10⁻⁶ cm/s. For the same compound, the Ratio in the data set on MDCK [10] came to 5.02.

Regarding `CC(C)S(=O)(=O)Nc1cncc(-c2ccccc2O[C@H]2C[C@@H]3CNC[C@H]2C3)c1.Cl` (racemic), the Ki is 4240 nM in [1]; 14600 nM in data set [2]; 0.202 nM in data set [5]; “Not Active” in data set [6]; 0.126 nM in data set [8]; 745 nM in data set [9]. The Efficacy came out at 57% in data set [12] and 160% in data set [4]. Moreover, the EC50 stood at 98.5 nM in data set [3] (Homo sapiens, HEK293) and 0.16 nM in data set [11]. Moreover, in data set [13], the Papp A→B worked out at 0.56 ×10⁻⁶ cm/s. Moreover, in data set [14], the efflux ratio was 1.49.

In the case of `CS(=O)(=O)Nc1cncc(-c2ccccc2O[C@H]2C[C@@H]3CNC[C@H]2C3)c1.Cl`, the Ki is 11700 nM in data set [1]; 4780 nM in [2]; 0.168 nM in data set [5]; “Not Active” in [6]; 0.158 nM in [8]; 336 nM in data set [9]. Moreover, the EC50 amounted to 3.27 nM in [3] (hek293) and 3.06 nM in [11]. Moreover, the minimal effective dose was 3.2 mg/kg in the data set with Mus musculus [15] and 0.1 mg/kg in the data set with Mus musculus [16] (read-out: MED). Besides, in data set [4], the Efficacy is on record as 148%. Further, the Papp A→B in data set [13] was found to be 1.17 ×10⁻⁶ cm/s. For the same compound, the ED50 in the data set with Mus musculus [16] (read-out: ID50 (the source's name)) stood at 0.66 mg/kg. For the same compound, the efflux ratio in [14] worked out at 4.38.

Consider `Cl.c1cncc(-c2ccccc2O[C@H]2C[C@@H]3CNC[C@H]2C3)c1`, for which the Ki is 1020 nM in [1]; 3300 nM in [2]; 2.15 nM in data set [5]; “Not Active” in data set [6]; 1.21 nM in [8]; over 832 nM in [9]. Further, the Efficacy in [4] is given as 35%. Besides, in the data set on MDCK [7], the Papp amounted to 28.7 ×10⁻⁶ cm/s. The Ratio with MDCK [10] worked out at 1.65. Moreover, the concentration for a half-maximal effect (EC50) in data set [11] is under 100 nM.

The values above are taken from ChEMBL document CHEMBL1208792, “A novel series of [3.2.1] azabicyclic biaryl ethers as alpha3beta4 and alpha6/4beta4 nicotinic receptor agonists” (Bioorg Med Chem Lett, 2010).
